According to patent US20220331467A1, “HALAL DISINFECTANT LIQUID” (priority 2019, published 2022):

Legend:
eye = settings: OECD TG 405; cited from earlier work
guinea pig skin = settings: female, Slc:Hartley, in vivo
Description: To find information related to the skin sensitization of a chlorous acid aqueous solution formulation, a Maximization Test was conducted using 20 female Slc:Hartley guinea pigs (SPF). […] In the test substance treatment group, 0.2 w/v % test substance solution (medium: distilled water) was intradermally injected in the first sensitization treatment using 10 animals, and a closed patch of 100% test substance solution (undiluted solution) was applied for 48 hours in the second sensitization treatment. A closed patch of 20 w/v % test substance solution was applied for 24 hours for elicitation treatment.
The prepared administered solutions (1) to (3) (section 14.9.1) of each test group were intradermally injected at 0.1 mL each to correspond to administration sites (1) to (3) in image 1.
The chest and back (image 1, site (4)) of an animal were shaved using an electric clipper and shaver on day 7. Open patch of 10% sodium dodecyl sulfate mixture (section 14.9.2) was applied thinly and homogeneously at the same site to a test substance treatment group and negative control group. […]
The body weight was measured before starting sensitization treatment (day 0) and the day of completion of observation of elicitation treatment sites (day 25). […]
The skin sensitization rate is calculated as [(number of sensitization positive animals/number of animals used)×100].

rabbit skin = test: Skin irritability test using rabbits (OECD 404); type: in vivo; settings: 0.5 mL patch, 4 hours exposure
Description: To study the skin irritability and corrosiveness of a chlorous acid aqueous solution formulation, a skin irritability test was conducted using three female Kbl:NZW rabbits. The irritability reaction was compared by setting a three rabbit sodium hypochlorite formulation treatment group as a comparative control group. 0.5 mL of test substance was applied homogenously to a lint patch and exposed 4 hours to the skin on the back of the rabbits. […] In addition, the body weight before administration and at the end of observation was measured.
For administration, 0.5 mL of test substance was spread homogeneously on the lint surface of a 2.45×2.45 cm patch (lint cloth, Hasegawa Menkou) by using a MICROMAN (model M1000, Gilson), and then applied to the back skin of animals using a paper adhesive tape (KENZ). Furthermore, the entire treatment site was covered with a large lint cloth (Hasegawa Menkou), which was secured with an adhesive bandage (New-HALE, Hasegawa Menkou). Exposure time was 4 hours. The patch was removed after completion of exposure. […]
Erythema, eschar formation, and edema at sites of administration were observed 1, 24, 48, and 72 hours after patch removal, and scored in accordance with determination criteria for skin reactions (Draize, 1959). […]
The body weight was measured on the administration date (before administration) and date of completion of observation for all tested animals. […]

Row | Number of animals showing the sign: General condition, No abnormality observed (guinea pig skin) | Number of positive animal (guinea pig skin) | Compound | Severe injury to eye or eye irritability (GHS category) (eye) | GHS hazard category of dermal irritation/corrosion (rabbit skin)
1 | – | – | CCO [Ethanol 95 v/v %, Ethanol] | Category 2B | –
2 | 0 | 5 | CCCCCCC(C=O)=Cc1ccccc1 [HCA, α-Hexylcinnamaldehyde] | – | –
3 | – | – | OCl [Sodium hypochlorite, sodium hypochlorite] | Category 1 | Category 1
